Measurements as given in patent publication US20220112149A1, “DRUG DESIGN METHOD ASSOCIATED WITH NATURAL PRODUCTS, PENTACYCLIC TRITERPENOID COMPOUND, PREPARATION METHOD AND APPLICATIONS THEREOF” (Huazhong Agricultural University, priority 2020, published 2022).

Experiments:
[1] = test system: high-fat-induced obese mice; assay: GA-03 in high-fat-induced obese mouse model, intraperitoneal; type: in vivo, C57BL/6 mice
Procedure: Animals are fed with 60% calorie high-fat diets (purchased from Bio-medicine) for 14 consecutive weeks. […] When the blood glucose is greater than 11 mmol/L and the body weight is greater than 42 g, the administration is started. […] The injection volume is […]. In addition, a vehicle (25 μL DMSO) is established. […] Mice in the blank group and GA-02 treatment group underwent pathological anatomy, to observe the changes in organs before and after administration. Samples are taken to prepare pathological sections.
The model is constructed by feeding high-fat diets to C57BL/6 male mice for 14 weeks, as shown in FIGS. 22A-22D, obese model mice with a body weight greater than 42 g and blood glucose level higher than 11 mmol/L. Model mice are grouped by blood glucose and body weight. […]

lean mice = details: mouse, in vivo, ip
Procedure: Six-week-old SPF-grade C57BL/6 mice (purchased from Hubei Provincial Center for Disease Control and Prevention) are fed in SPF animal house at a room temperature of 22° C., 4 mice per cage. Animals are fed with common diets (purchased) for 2 consecutive weeks. Mice are free to take food and the padding is changed every two days, and the body weights and blood glucose are monitored every week. When the body weight is greater than 22 g, the administration is started. The drug is dissolved in DMSO solvent and administered by intraperitoneal injection. The injection volume is 25 μL per day. In addition, a vehicle and positive drug control are established. The food intake and body weight changes of mice in each group are measured every day. On Days 1 and 21, the blood routine and blood biochemical parameters are monitored. At the same time, the glucose tolerance test (GTT) and insulin tolerance test (ITT) are carried out.

[2] = test system: ICAM-1 expression in HMEC-1 cells; assay: LPS-induced ICAM-1 expression in HMEC-1 cells, flow cytometry; type: cell-based, human
Procedure: (3) Screening candidate molecules with the strongest ICAM-1 inhibitory activity by simulating the physiological model of inflammation that human microvascular endothelial cells (HMEC-1) expressing cell adhesion molecules (ICAM-1) mediate lymphocytes to penetrate blood vessels to infiltrate the damaged tissues. The specific steps are as follows:
1) Culture of HMEC-1 cells: HMEC-1 cells are cultured in MCDB131 medium (U.S. Sigma) that contain 10% fetal bovine serum (FBS, Zhejiang Tianhang Biotechnology Co., Ltd.), double antibody (100 U/mL penicillin and 100 μg/mL streptomycin), 1 μg/mL hydrocortisone (Sangon Biotech (Shanghai) Co., Ltd.) and 10 ng/mL human recombinant growth factor (hEGF, Sangon Biotech (Shanghai) Co., Ltd.) at 37° C., 5% CO2, and 100% RH.
2) HMEC-1 cells are inoculated into a 24-well plate, and cultured in a cell incubator at 37° C., 5% CO2, and 100% RH. When the cells grow to 80% abundance, different concentrations of drugs are added for 3 h (1 μM Celastrol as a positive control drug). At the end of treatment, 1 μg/mL LPS is added to activate the NF-κB signaling pathway for 12 hours. After activation, the supernatant medium is discarded, and washed three times with PBS, and 100 μL of 0.25% pancreatin (containing 0.5 mM EDTA) is added to digest in a 37° C. incubator for 3 min. When most of cells are shed, 150 μL of MCDB131 complete medium is added to terminate the digestion, shaken for 3 min, then cells are transferred to a V-shaped 96-well plate (Corning), centrifuged at 4° C., 3000 rpm for 3 min to precipitate cells. Then the supernatant medium is discarded, 100 μL of pH=7.4 buffer A (PBS+0.5% BSA+1 mM MgCl2) is added to each well, to wash once, centrifuged at 4° C., 3000 rpm for 3 min, and the buffer A is aspirated. To each well, 100 μL of PBS solution containing 5% bovine serum albumin is added, and shaken and blocked at 120 rpm for 30 min at room temperature; after blocking, centrifuged at 4° C. and 2000 rpm for 3 min, and the supernatant is discarded, 20 μl of buffer A containing 5 μg/mL of primary antibody anti-ICAM-1 antibody LB-2, shaken and incubated at room temperature at 120 rpm for 1 h, using the buffer A without adding anti-ICAM-1 antibody LB-2 as the negative control. By detecting anti-ICAM-1 fluorescence value by flow cytometry, the expression of ICAM-1 protein in HMEC-1 cells is detected indirectly. Three duplicate wells are established for each concentration. PBS is set as a blank control, 1 uM of Celastrol is set as a positive control, to analyze the inhibitory effect of different concentrations of drugs on the expression level of ICAM-1.
1) Culture of HMEC-1 cells: HMEC-1 cells are cultured in MCDB131 medium (U.S. Sigma) that contain 10% fetal bovine serum (FBS, Zhejiang Tianhang Biotechnology Co., Ltd.), double antibody (100 U/ml penicillin and 100 μg/ml streptomycin), 1 μg/ml hydrocortisone (Sangon Biotech) and 10 ng/ml human recombinant growth factor (hEGF, Sangon Biotech) at 37° C., 5% CO2, and 100% RH.
HMEC-1 cells are inoculated into a 24-well plate, and cultured in a cell incubator at 37° C., 5% CO2, and 100% RH. When the cells grow to 80% abundance, different concentrations of drugs are added for 3 h (1 μM Celastrol as a positive control drug). At the end of treatment, 1 μg/mL LPS is added to activate the NF-κB signaling pathway for 12 hours. After activation, the supernatant medium is discarded, and washed three times with PBS, and 100 μL of 0.25% pancreatin (containing 0.5 mM EDTA) is added to digest in a 37° C. incubator for 3 min. When most of cells are shed, 150 μL of MCDB131 complete medium is added to terminate the digestion, shaken for 3 min, then cells are transferred to a V-shaped 96-well plate (Corning), centrifuged at 4° C., 3000 rpm for 3 min to precipitate cells. Then the supernatant medium is discarded, 100 μL of pH=7.4 buffer A (PBS+0.5% BSA+1 mM MgCl2) is added to each well, to wash once, centrifuged at 4° C., 3000 rpm for 3 min, and the buffer A is aspirated. […]

mildly obese mice = assay: GA-03 in mildly obese mouse model, intraperitoneal; type: in vivo, C57BL/6 mice; details: intraperitoneal injection
Procedure: Animals are fed with common diets (purchased) for 14 consecutive weeks. […] When the body weight is greater than 30 g, the administration is started. […] The injection volume is 25 μL per day.

[3] = test system: NF-κB signaling in HEK293 cells; assay: NF-κB luciferase reporter gene system; type: cell-based; details: Homo sapiens, HEK293, read-out: inhibition of the fluorescence signal (NF-κB luciferase reporter)
Procedure: FIGS. 10A-10C show the inhibition verification effect chart of GA-02 in Example 5, where FIG. 10A: GA-02 inhibited LPS-induced ICAM-1 expression activity. The inflammatory pathway of HMEC-1 cell was activated by 1 μg/mL LPS, to determine the effect of Celastrol and GA-02 on the expression of ICAM-1 induced by LPS. FIG. 10B: The effect of GA-02 on NF-κB signaling. The NF-κB luciferase reporter plasmid was used to transfect HEK293 cells, and the effects of Celastrol and GA-02 on the NF-κB activity induced by TNF-α were determined; FIG. 10C: qRT-PCR was used to detect mRNA relative expressions of IL-1β, TNF-α, IL-6 and MCP-1.
ICAM-1 is a downstream effector molecule regulated by NF-κB signaling pathway, and NF-κB plays an important role in regulating the expression of ICAM-1 gene. Celastrol can inhibit the activation of the LPS-induced IKK/NF-κB signaling pathway. In order to validate that GA-02 functions through the IKK/NF-κB signaling pathway, we constructed an NF-κB luciferase reporter gene system to validate the inhibitory activity of Celastrol and GA-02 on the luciferase reporter gene. […] In addition, both Celastrol and GA-02 could down-regulate the mRNA transcription levels of inflammatory factors IL-1β, TNF-α, IL-6 and MCP-1 activated by LPS.

mice = details: cited from earlier work
[4] = in vivo; cited from earlier work
[5] = test system: mice with hereditary diabetes; details: cited from earlier work
normal rats = details: cited from earlier work
[6] = high-dose (8 mg/kg) i.p., second day
[7] = high-dose (8 mg/kg) i.p., third day
[8] = low-, medium- and high-dose (2, 4, 8 mg/kg) i.p.

**Q.** With “11-dicarbonyl-12-ene-2α,3β-dihydroxy-oleanane [GA-03]” as the compound, how does the “body weight reduced by” value ([1]; high dose 8 mg/kg i.p., three weeks) read?
**A.** The value was 33.80±2.95%.

**Q.** And the “body weight after three weeks of administration” value (from here on “body weight after three weeks”) ([1]; high dose 8 mg/kg i.p., from 47.49±0.97 g)?
**A.** The value was 31.45 ± 1.81 g.

**Q.** And the “liver function indexes AST and ALT vs vehicle control group” value ([1]; high-dose (8 mg/kg) i.p.)?
**A.** The value was “significantly lower”.

**Q.** What about the “average daily food intake” value ([1]; high-dose (8 mg/kg) i.p., first day of administration, day 0: 3.14±0.40 g) of the same compound?
**A.** The value was 0.65 ± 0.02 g.

**Q.** And the body weight ([1]; high-dose (8 mg/kg) i.p., first day, from 47.49±0.97 g)?
**A.** Its body weight is 46.18 ± 0.95 g.

**Q.** What about the “average daily food intake” value [1, 6] of the same compound?
**A.** Its value is 0.57 ± 0.01 g.

**Q.** What about the body weight [1, 6] of the same compound?
**A.** Its body weight is 44.74 ± 0.76 g.

**Q.** What about the “average daily food intake” value [1, 7] of the same compound?
**A.** Its value is 0.66 ± 0.06 g.

**Q.** What about the body weight [1, 7] of the same compound?
**A.** The body weight was 43.13 ± 0.65 g.

**Q.** What about the “lipid droplets in the liver (oil red O and H&E staining)” value ([1]; high-dose (8 mg/kg) i.p., three weeks) of the same compound?
**A.** Its value is “completely disappeared”.

**Q.** And the “effect on appetite suppression and weight reduction” value ([1]; intraperitoneal injection, obese mice)?
**A.** The value was “strong effect”.

**Q.** What about the “body weight reduced by” value ([1]; low dose 2 mg/kg i.p., three weeks) of the same compound?
**A.** Its value is 20.40±1.89%.

**Q.** What about the “body weight after three weeks” value ([1]; low dose 2 mg/kg i.p., from 47.11±1.32 g) of the same compound?
**A.** Its value is 37.49 ± 1.28 g.

**Q.** What about the “fasting blood glucose levels” value [1, 8] of the same compound?
**A.** The value was “reduce to a normal level”.

**Q.** And the “weights of liver and epididymal fat compared to the vehicle control group” value [1, 8]?
**A.** The value was “decrease in a dose-dependent manner”.

**Q.** What about the “blood glucose tolerance (GTT) and insulin tolerance (ITT)” value ([1]; low-, medium- and high-dose groups, i.p.) of the same compound?
**A.** Its value is “significantly improved”.

**Q.** And the “body weight reduced by” value ([1]; medium dose 4 mg/kg i.p., three weeks)?
**A.** The value was 27.63±3.39%.

**Q.** What about the “body weight after three weeks” value ([1]; medium dose 4 mg/kg i.p., from 46.94±1.41 g) of the same compound?
**A.** The value was 33.99 ± 2.30 g.

**Q.** And the “effect on the food intake and body weight” value (lean mice)?
**A.** Its value is “no effect”.

**Q.** What about the “anti-inflammatory activity compared with reference compounds” value [2] of the same compound?
**A.** The value was “basically equivalent to that of GA-02 and superior to 18β-glycyrrhetinic acid”.

**Q.** And the “effect on appetite suppression and weight reduction” value (mildly obese mice)?
**A.** The value was “obvious effect”.

**Q.** For `CC1(C)[C@@H](O)CC[C@]2(C)[C@H]3C(=O)C=C4[C@@H]5C[C@@](C)(C(=O)O)CC[C@]5(C)CC[C@@]4(C)[C@]3(C)CC[C@@H]12` [18-β-glycyrrhetinic acid, reference compound], which “ICAM-1 inhibitory activity among the candidate triterpene natural products” value ([2]; HMEC-1, 1 μg/mL LPS, FIG. 3) is on record?
**A.** Its value is “best ICAM-1 inhibitory activity”.

**Q.** Which results are given for `CC1=C(O)C(=O)C=C2C1=CC=C1[C@@]2(C)CC[C@@]2(C)[C@@H]3C[C@](C)(C(=O)O)CC[C@]3(C)CC[C@]12C` [Celastrol]?
**A.** inhibition at 1 µM [3]: 70%; toxicity to the brains, hearts and livers (mice; dose of 1 mg/kg): serious toxicity; lethality rate (mice; dose of 4 mg/kg): 40%; bioavailability [4]: 17.06%

**Q.** With `C[C@H]1[C@H](C)CC[C@]2(C(=O)O)CC[C@]3(C)C(=CC[C@@H]4[C@@]5(C)C[C@@H](O)[C@H](O)C(C)(C)[C@@H]5CC[C@]43C)[C@H]12` [corosolic acid] as the compound, how does the blood glucose lowering [5] read?
**A.** The blood glucose lowering was “significant effect of lowering blood glucose”.

**Q.** And the blood glucose lowering (normal rats)?
**A.** The blood glucose lowering was “significant effect of lowering blood glucose”.
